Experiment [1] deals with porcine aortic endothelial cells. As to conditions: cited from earlier work.
Experiment [2] relates to motility, stereotypy and learning of conditioned avoidance responses. As to conditions: injected in the lateral cerebral ventricle, rats; cited from earlier work.
For experiment [3], the system named is neurons in the paraventricular nucleus. As to conditions: cited from earlier work.
Another experiment relates to water intake. To be noted: injected into the anterior diencephalons in the rat; cited from earlier work.
The subject of experiment [4] is blood pressure. As to conditions: in vivo; cited from earlier work.
The subject of another experiment is rat mesangial cells. To be noted: through the AT1 receptor; cited from earlier work.
Experiment [5] concerns rat isolated nodose ganglion. To be noted: cited from earlier work.
For experiment [6], the system named is porcine vascular smooth muscle cells. As to conditions: cited from earlier work.
Experiment [7] concerns rat glomerulus preparations. As to conditions: through the AT1 receptor; cited from earlier work.
Experiment [8] has as its system porcine coronary artery rings. As to conditions: perhaps through nitric oxide; cited from earlier work.
For another experiment, the system named is human astrocytes. As to conditions: cited from earlier work.
For experiment [9] the following is noted: in contrast to AII; cited from earlier work.
For experiment [10], the system named is blood pressure. To be noted: cited from earlier work.
Experiment [11] concerns baroreceptor-heart-reflex. To be noted: in vivo; cited from earlier work.
In a further experiment the test system is rat adrenal medulla. As to conditions: cited from earlier work.
The subject of a further experiment is wound tissue. To be noted: application to wound tissue; cited from earlier work.
The subject of experiment [12] is full thickness dermal wounds. Description: Wound closure and granulation tissue in full thickness dermal wounds, carboxymethyl cellulose vehicle (Example 3). In kind it is in vivo, Female Sprague Dawley rats. As to conditions: tested fragments of AII. The protocol:
Female Sprague Dawley rats, 175-200 g, were obtained from Simonsen Laboratories, Gilroy, Calif. On the day of surgery, the rats received intramuscular ketamine/rompum anesthesia prior to preparation for surgery. The rats were shaved and scrubbed with betadine. Two 1.5×1.5 cm full thickness dermal wounds were created on the dorsal surface of the rat. Following excision of the skin, the size of the wound was outlined on a glass slide and the medicament was administered ini 100 μl 10% low viscosity carboxymethyl cellulose (Sigma). The test materials were administered in a randomized fashion; all materials were tested at 100 μg/wound. Controls were treated with vehicle only. After administration of the materials, the rats were bandaged and allowed to recover from anesthesia. On days 1-4 after surgery, the rats were treated with an additional 100 μg of peptide formulation. At days 2, 4, 7 and 9, the area of the skin wounds were measured under methoxyflurane anesthesia (commercially available as Metofane from Pittman-Moore, Mundelein, Ill.). The area of the wound was determined by: (1) tracing the wound shape onto graph paper (1×1 mm squares); (2) cutting out the shape; (3) weighing the paper and comparing the weight with a 1.5×1.5 cm paper cutout; and (4) counting the number of squares. In addition, on days 2, 4 and 7, the area of granulation tissue was similarly determined.

Experiment [13] deals with blood pressure. As to conditions: intracerebroventricular infusion in the rat; concentrations 1000× higher than that of AII that increased blood pressure; cited from earlier work.

“Also recorded” adds a separate entry of the source. Read-outs that look alike come from different tables or passages of the source. Ends that are not written are not given here.

Take “AI: a decapeptide called angiotensin I which is converted to angiotensin II (DRVYIHPFHL; Angiotensin-1; UniProt P01019 25-34, looked up)”: the “release of prostaglandin E2 and 12” value in experiment [1] is given as “stimulated”.

With “Arg-Val-Tyr-Ile-His (RVYIH; printed: Arg-Val-Tyr-Ile-His) [AII(2-6)]”, the “motility, stereotypy and learning of conditioned avoidance responses (psychotropic activities)” value (“motility, stereotypy and learning” below) in experiment [2] is “not active”.

As to “Arg-Val-Tyr-Ile-His-Pro (RVYIHP) [AII(2-7)]”, the excitation of neurons entry in experiment [3] is “inactive”.

Turning to Asp-Arg-Val-Tyr (DRVY) [AII(1-4)], the “effect on water intake” value in the experiment with water intake is recorded as “only a slight effect”.

Regarding “Asp-Arg-Val-Tyr-Ile-His-Pro (DRVYIHP) [AII(1-7)]”, in the experiment on blood pressure [4], the “amount required relative to AII to get a comparable pressor response” value is “about 10000 ×”, the depressor effect result was “long depressor effect” and the pressor effect result is reported as “weak pressor”. In addition, the choline production result with rat mesangial cells was “very weak effects”. Also, the excitation of neurons entry in [3] is on record as “weaker”. Moreover, the excitation of neurons entry in experiment [3] (listed as Ang(1-7)) is listed as “excited”. In the experiment with water intake, the “effect on water intake” value is “completely inactive”. For the same substance, the “depolarization of nodose ganglion” value in experiment [5] is listed as “does not”. In addition, the prostaglandin release entry in experiment [6] is recorded as “increases”. Also, the “formation of cAMP in response to histamine, serotonin and parathyroid hormone” value in experiment [7] is on record as “did not have this effect”. In addition, the “release of prostaglandin E2 and 12” value in experiment [1] was “stimulated”. Moreover, in experiment [8], the “dilation of coronary artery rings” value was “dilates”. Moreover, in the experiment with human astrocytes, the prostaglandin release entry is recorded as “increases”. In experiment [9], the aldosterone release entry is given as “does not cause”, the catecholamine release result was “does not cause” and the dipsogenic effect result is “not dipsogenic”. In addition, the “dose at which pressor effects on blood pressure occur, relative to AII” value in the experiment with blood pressure [10] (depending upon the model tested and route of administration) is on record as 10000-100000 times the dose of AII. In addition, the “depressor effect on blood pressure” value in the experiment with blood pressure [10] (may be mediated through prostanoid synthesis) is on record as “depressor effect”.

On to “Asp-Arg-Val-Tyr-Ile-His-Pro-Phe (DRVYIHPF) [AII]”, for which the choline production entry in the experiment with rat mesangial cells is “stimulates”. Also, in experiment [3], the excitation of neurons entry was “excited”. Moreover, in experiment [11], the “sensitivity of the baroreceptor-heart-reflex” value was “enhances”. Further, in the experiment on rat adrenal medulla, the “evoked neuronal norepinephrine release” value is “biphasic effect” and the “spontaneous neuronal norepinephrine release” value is “increasing”. In addition, the “depolarization of nodose ganglion” value in experiment [5] was “causes depolarization”. The “motility, stereotypy and learning” value in experiment [2] is given as “increased”. In experiment [6], the prostaglandin release entry is “increases” and the “release of intracellular Ca2+” value is reported as “increases”. The “formation of cAMP in response to histamine, serotonin and parathyroid hormone” value in [7] is “inhibited”. Moreover, the “release of prostaglandin E2 and 12” value in [1] is given as “did not have this effect”. For the same substance, in experiment [8], the “dilation of coronary artery rings” value is given as “not observed”. In addition, in the experiment on human astrocytes, the prostaglandin release entry is “increases” and the “release of intracellular Ca2+” value is on record as “increases”. Further, the “rate of wound healing” value in the experiment with wound tissue was “significantly increases”.

As to DRVYIH [AII(1-6)], the choline production result with rat mesangial cells was “very weak effects”. In [2], the “motility, stereotypy and learning” value was “not active”.

As to His-Pro-Phe (HPF) [AII(6-8)], the “effectiveness in wound healing” value in experiment [12] is listed as “not to be effective”.

In the case of Ile-His-Pro-Phe (IHPF) [AII(5-8)], the “effect on blood pressure” value with blood pressure [13] was “minimal effect”. Also, the “effect on water intake” value in the experiment on water intake was “only a slight effect”.

In the case of Try-Ile-His-Pro-Phe (YIHPF) [AII(4-8)], the “effect on blood pressure” value in the experiment on blood pressure [13] is on record as “minimal effect”. In addition, the “effectiveness in wound healing” value in experiment [12] is listed as “not to be effective; also recorded: ineffective”. In addition, in the experiment on water intake, the “effect on water intake” value is on record as “only a slight effect”.

For the substance Val-Tyr-Ile-His-Pro (VYIHP) [AII(3-7)], in the experiment with blood pressure [4], the depressor effect entry is listed as “no depressor effect” and the pressor effect result is “less of a pressor effect than AII(1-7)”.

Take “Val-Tyr-Ile-His-Pro-Phe (VYIHPF) [AII(3-8)]”: the “dilation of coronary artery rings” value in experiment [8] is on record as “not observed”.

Source of the values: patent publication US20050032688A1, “Use of angiotensin II fragments and analogs thereof in tissue repair” (University of Southern California, priority 1993, published 2005).
